For 88 compounds, melting point results are on record in a melting point compilation (Tetko et al.; mined from patent text by program, amines drawn as free bases though some values may be those of a salt).

`COC(=O)c1ccc2[nH]c(=O)n(Cc3ccc(OC)cc3)c(=O)c2c1`: the melting point is 235 to 237 °C.

`N#CC1Cc2ccc([N+](=O)[O-])cc2C1` (stereo not drawn) came in with a melting point of 80 to 82 °C.

As for `CC(=O)c1ccc(S(=O)(=O)Nc2nccs2)cc1`, the melting point lay in the range of 194 to 195 °C.

For `O=C(NCc1ccc(Cl)cc1)c1cnc2c(CNCc3ccccc3)cc(CN3CCOCC3)cc2c1O`, the melting point is 214 to 216 °C.

In turn, `CC1=C(/C=C/S(=O)(=O)NC(C)C)C(c2cc([N+](=O)[O-])ccc2Cl)C(C(=O)OC(C)C)=C(C)N1` (stereo not drawn) registered a melting point of 199 to 201 °C.

As for `Nc1nc2c(s1)CCN(CC=Cc1cccc(OCc3ccccc3)c1)CC2`, the melting point lay within 78 to 80 °C.

`O=C(O)Cc1ccc(Oc2ccc(F)cc2)cc1` showed a melting point of 87 to 89 °C.

The compound `COC(=O)CC(C#Cc1cccc(-c2nc(C)no2)c1)c1ccc(OC)c(OC2CCCC2)c1` (racemic) yielded a melting point of 66 to 68.5 °C.

Turning to `COc1ccc(N2CCOCC2)c2sc(-c3nc4ccc(N5CCOCC5)nc4[nH]3)nc12`, the melting point is 260 to 262 °C.

`COC(=O)c1ccc(-c2ccc(-c3ccc4c(c3)C(C)(C)CCC4(C)C)s2)cc1` yielded a melting point of 126 to 129 °C.

For `Cc1cncc(/C=C/c2cccc(F)c2)n1`, the melting point was in the range of 43 to 44 °C.

`CCCCCCCCCCCCNC(=O)c1cc(Br)c(OCCn2cnnn2)c(-c2cccc(C(F)(F)F)c2)c1` returned a melting point of 91.5 to 92.6 °C.

Take `Cc1noc(=O)c2ccc(NC(=O)C(=O)CC3(c4ccccc4)CC3)cc12`: the melting point lay in the range of 155 to 156 °C.

In the case of `CCCCC(CC)Nc1cc(C)nc(Cl)c1N` (stereo not drawn), the melting point lay in the range of 139 to 140 °C.

For the compound `O=C(O)c1ccccc1OCCN1CCC(c2cn(CC3CC3)c3cc(F)ccc23)CC1`, the melting point was determined as 97 °C.

For `O=[N+]([O-])c1cc(I)cc(CF)c1`, the melting point is 50.5 to 51.5 °C.

The compound `C#CCn1c(I)cc(C(O)C(C)(C)C)c(C)c1=O` (stereo not drawn) registered a melting point of 105 to 106 °C.

For `Cc1cccc(C)c1NC(=O)CN1CCN(C=O)CC1`, the melting point lay in the range of 139 to 140 °C.

Regarding `Cc1cc2ncccc2[nH]1`, the melting point lay in the range of 193 to 195 °C.

As for `CC(C)(C)NS(=O)(=O)c1cnc(-c2cn(-c3nc(-c4ccc(C(F)(F)F)cc4)cc(C(F)(F)F)n3)cn2)s1`, the melting point came to 281 °C.

As to `N#Cc1ccc(O)cn1`, the melting point lay within 191 to 194 °C.

In the case of `CCCCCCCCCCCCCCCCC(C)c1cccc2c1OC(=O)C2c1ccccc1` (stereo not drawn), the melting point was 60 to 62 °C.

For the compound `N#Cc1ccc2nc3c(c(=O)n2c1)CSC3`, the melting point lay in the range of 256 to 257 °C.

`CC(C)NC(=O)c1nc(-c2ccc(F)cc2)c(-c2ccc(=O)n(C(C)C)n2)s1`: the melting point lay within 122 to 124 °C.

On to `O=C(O)c1cccc(Cn2cc(C3c4ccccc4C=Cc4ccccc43)c(=S)[nH]c2=S)c1`, for which the melting point lay in the range of 167 to 170 °C.

For the compound `CC(C)(C)OC1CCC2(C)C(=CCC3C4CCC(=O)C4(C)CCC32)C1` (stereo not drawn), the melting point fell in the range of 185 to 187 °C.

For the compound `COc1cc(Nc2nccc(-c3cccc4ccccc34)n2)cc(OC)c1OC`, the melting point is 130 to 133 °C.

Compound `O=C(O)CCCNC(=O)c1ccc(Cl)cc1O` yielded a melting point of 131 to 133 °C.

As for `COc1cccc(-c2cn3c(ccc4ccccc43)n2)c1`, the melting point was in the range of 129 to 131 °C.

`CC1OC(=O)N(Cc2ccccc2[N+](=O)[O-])C1=O` (stereo not drawn) gave a melting point of 114 °C.

As to `NC(=O)Cc1ccc(OCCN(CC(=O)c2ccc(OCc3ccccc3)c(OCc3ccccc3)c2)Cc2ccccc2)cc1`, the melting point fell in the range of 99 to 101 °C.

As for `Cc1cccc2ncc(NC(=O)Nc3ccc(F)cc3F)c(-c3ccccc3Cl)c12`, the melting point lay within 218 to 220 °C.

Take `COc1cc2c(-c3ccnc(NN)c3)c(CO)c(CO)cc2cc1OC1CCCC1`: the melting point lay in the range of 127 to 130 °C.

Regarding `CC(C)(O)c1nnc(-c2ccc3ncn(-c4ccc(OC(F)(F)F)cc4)c3c2)o1`, the melting point was in the range of 159 to 160 °C.

With `CN1CC(=O)N(c2ccc(C#N)c(C(F)(F)F)c2)C1=S`, the melting point lay in the range of 220 to 221 °C.

Compound `COC(=O)C1C2CCC(C2)C1N(C)S(=O)(=O)c1ccc(O)cc1` (stereo not drawn) returned a melting point of 163 to 164 °C.

For `CC(C)(C)OC(=O)c1ncn2c1[C@@H]1CCCN1C(=O)c1c(Cl)cccc1-2`, the melting point was in the range of 216 to 217 °C.

Turning to `CCOc1cc(OCC)cc(-c2cncn2-c2ccc(S(C)(=O)=O)cc2)c1`, the melting point was 100 to 101 °C.

The compound `CNC(=O)c1ccc(CN2CCN(c3nc(C)c(-c4cc(C)n[nH]4)s3)C2=O)cc1` returned a melting point of 236 to 238 °C.

Turning to `CC1=CC2=C(N3CN(N4CCCC4)C=C3N=N2)N(c2cc(Cl)ccc2Cl)C1`, the melting point is 157 °C.

As for `CCS(=O)(=O)Nc1cc(-n2nc3n(c2=O)CCCC3)c(F)cc1C(N)=S`, the melting point was 220 °C.

As for `Cc1ccc(S(=O)(=O)OCCCCO[N+](=O)[O-])cc1`, the melting point fell in the range of 38 to 40 °C.

With `CCOC(=O)c1ccc(Cc2ccc(O)cc2)cn1`, the melting point lay in the range of 153 to 156 °C.

On to `CCC(C)(C)Nc1c(N(Cc2ccc(C#N)cc2Cl)C(C)=O)c(=O)c1=O`, for which the melting point was 150 to 151 °C.

Take `COc1cc(NS(=O)(=O)CC(=O)c2ccccc2)c2c(c1)OC(C)C2` (stereo not drawn): the melting point lay in the range of 143 to 145 °C.

The compound `CC(C)CCOCc1cc(-n2nc(C(N)=O)nc2-c2ccccc2F)ccc1Cl` gave a melting point of 113 to 115 °C.

The compound `O=C(CCl)Nc1ccc(Cl)cc1C(=O)O` showed a melting point of 188 °C.

In turn, `OCc1ccc2c(c1)ncn2Cc1ccccc1` returned a melting point of 148 to 150 °C.

Compound `COc1cc(N)c(Cl)cc1C(=O)NCC1CCN(CCCCCC(=O)c2ccccc2)CC1` gave a melting point of 138 to 141 °C.

The compound `O=C(NC(c1ccccc1)c1ccccc1)N1CCC(c2ccccc2)(c2ccccc2)CC1` had a melting point of 232 to 234 °C.

Compound `Cc1cc(C)cc(NC(=O)Cc2ccc(OC(C)C(=O)O)cc2)c1` (stereo not drawn) displayed a melting point of 183 to 187 °C.

Compound `CCCOn1c(C)nc(N2CCc3ccccc3CC2)c(C#N)c1=O` displayed a melting point of 132 to 134 °C.

The compound `CC(CO)(CO)NS(=O)(=O)c1cccc(C#Cc2cnn3c(C(F)F)cc(-c4ccc(C(F)(F)F)cc4)nc23)c1` came in with a melting point of 172 to 174 °C.

Take `Cc1ccc(-c2ccc3c(c2)C=C(C(=O)Nc2ccc(CN(C)C4CCOCC4)cc2)CCO3)s1`: the melting point fell in the range of 129 to 130 °C.

`CC(=O)c1ccc(N2CCN(c3c(C)c(C)c4c(c3C)CC(C)(C)O4)CC2)cc1` had a melting point of 192 to 196 °C.

`O=C1C=CC(=O)N1c1ccc2c3c(cccc13)-c1ccccc1-2` displayed a melting point of 185 to 186 °C.

Consider `Cc1cc(Br)cnc1CCCNc1ncc(Cc2cccnc2)cc1[N+](=O)[O-]`, for which the melting point was in the range of 105 to 106 °C.

In turn, `CCc1nn(COC(N)=O)c(CC)c1Cc1cc(Cl)cc(Cl)c1` yielded a melting point of 153 to 155 °C.

With `O=C(O)Cc1cccc2c(-c3ccc(Br)cc3)onc12`, the melting point was in the range of 190 to 192 °C.

On to `CNc1nc2ccccc2c2[nH]c3ccccc3c12`, for which the melting point lay in the range of 146 to 147 °C.

Compound `O=C(O)Cc1ccccc1Cc1nc2c(F)c(F)cc(F)c2s1` displayed a melting point of 124 to 126 °C.

`COc1ccc(S(=O)(=O)N2C(=O)[C@@](c3ccccc3OC)(N3C[C@H](OC(N)=O)C[C@H]3C(=O)N(C)C)c3cc(Cl)ccc32)c(OC)c1` showed a melting point of 115 to 125 °C.

Compound `CC(NC(=O)OC(C)(C)C)c1cc(F)c(N)c(I)c1` (stereo not drawn) yielded a melting point of 88 to 90 °C.

On to `Cc1cc(Br)cnc1CCCCNc1ncc(Cc2ccc(F)cc2)c(=O)[nH]1`, for which the melting point lay within 172 to 173 °C.

Compound `CCc1nn(-c2cc(NC(C)=O)ccc2Cl)c(=O)n1Cc1ccc(-c2ccccc2S(=O)(=O)NC(=O)OC(C)(C)C)cc1F` came in with a melting point of 158 to 160 °C.

In the case of `O=c1[nH]cnc2oc(-c3ccccc3)cc12`, the melting point fell in the range of 320 to 322 °C.

With `Cc1c(C(=O)O)cnn1-c1ccc(F)c(F)c1`, the melting point was found to be 148 °C.

With `CC(C)(C)OC(=O)NCC1CCc2cc(C=O)ccc2C1` (stereo not drawn), the melting point is 115 °C.

In turn, `COc1ccc(N2CCN(NC(=S)NCC(OC)OC)CC2)cc1` had a melting point of 157 °C.

Take `N#Cc1nc(Cl)c(-c2cccc(Cl)c2)nc1C#N`: the melting point was 87 to 88 °C.

`CS(=O)(=O)c1ccc(Oc2ccc(OCC#N)cc2)cc1` showed a melting point of 114 to 116 °C.

In turn, `Cc1c(NC(=O)c2ccc(-c3ccccc3F)c(F)c2)ccc2cc(CN3CCCC3)cnc12` yielded a melting point of 139 to 140 °C.

Compound `CN1CCN(C2=Nc3cc(Br)ccc3-n3ccc4cc(Br)cc2c43)CC1` came in with a melting point of 158 to 159 °C.

Take `CSc1nccn1NCc1cc(C(C)(C)C)c(O)c(C(C)(C)C)c1`: the melting point lay in the range of 110 to 113 °C.

For the compound `OC(CCCC(O)c1ccccc1)c1ccccc1` (stereo not drawn), the melting point fell in the range of 64 to 67 °C.

For `COc1ccc(C(=O)CCCN2CCC(OC(=O)c3cc(Cl)c(N)c4c3OCC4)CC2)cc1OC`, the melting point is 156 °C.

The compound `Nc1nccnc1OCc1cccnc1` registered a melting point of 120 to 122 °C.

Consider `Nc1ccc(C(=O)N2Cc3ccnn3Cc3ccccc32)c(Cl)c1`, for which the melting point lay within 98 to 117 °C.

As to `Cc1nnc(-c2ccc3occ(-c4cc(Cl)ccc4Cl)c3c2)o1`, the melting point was 185 to 186 °C.

The compound `C[C@@H]1CNCc2cc3cccc(OC(F)(F)F)c3n21` returned a melting point of 58 to 60 °C.

`N#Cc1c(N)nc2ccccc2c1NCc1ccco1` displayed a melting point of 206 °C.

As to `O=C(O)c1cccc(Cn2ccn(C3CCc4ccccc4C3)c2=S)c1` (stereo not drawn), the melting point lay within 252 to 254 °C.

`COC(=O)C=Cc1ccc(OCc2nc(-c3ccccc3)oc2C)c(F)c1` came in with a melting point of 167 to 168 °C.

Regarding `CC(C)CC(Br)C(=O)N1CCC[C@H]1CO` (stereo partly drawn), the melting point was in the range of 79 to 82 °C.

Consider `COc1cc(C(C#N)CCC(C#N)c2cc(OC)c(OC)c(OC)c2)cc(OC)c1OC` (stereo not drawn), for which the melting point lay in the range of 173 to 174 °C.

Take `c1cncc(OCCCn2cc(-c3cc4nccnc4[nH]3)c3ccccc32)c1`: the melting point lay within 208 to 209 °C.

Regarding `N#CC=C(C#N)Nc1ccccc1`, the melting point was in the range of 123 to 126 °C.

The compound `CCOC(=O)C(=CN)C(=O)c1cc(F)c(F)c(F)c1F` gave a melting point of 118 to 119 °C.
